From patent US20240025920A1, “SALT FORM USED AS CDC7 INHIBITOR AND CRYSTAL FORM THEREOF” (Chia Tai Tianqing Pharmaceutical Group Co., Ltd., priority 2020, published 2024)
Like-named read-outs stand apart in the source and are kept apart here.

Legend:
[1] = target: CDC7/DBF4 kinase (Homo sapiens, UniProt O00311); test: ADP-Glo kinase assay, inhibition of CDC7/DBF4 kinase activity; format: biochemical; details: for IC50: CDC7/DBF4, 10 μM ATP
Excerpt: The ADP-Glo™ kinase assay is a chemiluminescent kinase assay. The reaction of kinase with substrate requires ATP to provide energy, thereby converting ATP into ADP. The enzymatic activity is reflected by the amount of ADP produced in the reaction. In the assay, ADP is converted into ATP, and then ATP binds to Ultra-Glo™ Luciferase with light emitted; the intensity of light emission is directly proportional to the amount of ADP.
The ADP-Glo™ assay was used to investigate the inhibitory effect of crystal form A of the test compound of formula (II) on the activity of CDC7/DBF4 kinase. The highest concentration of the test compound was 10 μM, and 5-fold serial dilution was performed to obtain 8 concentration points. The compound was re-tested on a different day, and each test was performed in duplicate.
• 1) Preparation of 10 mM DTT (freshly prepared at the time of use) • 1 μL of 0.1 M DTT was measured out and 9 μL of deionized water was added. • 2) 2× assay buffer (freshly prepared at the time of use) • 168 μL of Kinase assay buffer III was measured out and 2.5-fold diluted with 248 μL of deionized water, and 4.2 μL of 10 mM DTT was added. The buffer was kept on ice before use. • 3) 1× assay buffer (freshly prepared at the time of use) • 250 μL of 2× assay buffer was measured out and diluted into 1× assay buffer by adding 250 μL of deionized water. The buffer was kept on ice before use. • 4) ADP-Glo Kinase Assay
The kit contains an ADP-Glo™ reagent, a kinase assay solution, a kinase assay solution matrix and a 10 mM ATP stock solution.
Preparation of the kinase assay solution: The kinase assay buffer and the kinase assay solution matrix were equilibrated to room temperature and then mixed. After complete dissolution, the solution was ready. The unused solution should be aliquoted and stored at −20° C.
ADP-Glo™ reagent: The reagent was equilibrated to room temperature at the time of the first use. The unused solution should be aliquoted and stored at −20° C.
• 1) 10 mM test compound was diluted to 1 mM with 100% DMSO: 5 μL of 10 mM test compound was added to 45 μL of 100% DMSO; the concentration of the compound dilution was 1 mM, and the dilution was put into row A of a 384-well compound plate as the highest concentration. • 2) To row B through row H of the 384-well compound plate was added 20 μL of 100% DMSO. • 3) From row A, 5 μL of compound was transferred to row B, and the mixture was well mixed. Then 5 μL of compound was transferred from row B to row C, and the mixture was well mixed. This procedure was repeated to row H to complete the serial dilution of the compound. • 4) Preparation of compound working solutions: 0.5 μL/well of compound was transferred to a new 384-well compound plate, and 9.5 μL of 1× assay buffer was added. […]

[2] = Stability test under accelerated conditions (HPLC related substances, appearance, crystal form, ee); format: physicochemical; set-up: impurity at RRT 0.31 / impurity at RRT 1.40 / impurity at RRT 0.23 / impurity at RRT 0.91 / impurity at RRT 0.98 / impurity at RRT 0.99 / impurity at RRT 1.08: unit not given here
Experimental: Instrument model: Agilent 1200 high performance liquid chromatograph
50 mg of crystal form A of the compound of formula (II) was measured and placed in a dry, clean glass bottle, spread into a thin layer, and left to stand under accelerated conditions (60° C., 25/92.5% RH, 40° C./75% RH and 60° C./75% RH). The sample was completely exposed, and the bottle was covered with aluminum foil in which holes are pricked. Samples were taken at 5 days, 10 days, 1 month, 2 months and 3 months and analyzed.

[3] = Hygroscopicity test (25° C., saturated ammonium chloride solution, 24 h); format: physicochemical; details: 25° C./80% RH criteria
Experimental: A dry glass weighing bottle with a lid was placed in a dryer with saturated ammonium chloride solution placed in the lower part, and the weighing bottle was left to stand uncovered. A lid was put on the dryer, and the dryer was placed in a 25° C. box and left to stand overnight. After being left to stand overnight, the weighing bottle was taken out and precisely weighed, and the weight was denoted by m1.
A proper amount of crystal form A of the compound of formula (II) was measured out and spread in the weighed measuring bottle (the sample was about 1 mm thick). The measuring bottled was then precisely weighed, and the weight was denoted by m2.
The weighing bottle, together with its lid, was placed in a dryer with saturated ammonium chloride solution placed in the lower part and left to stand uncovered. A lid was put on the dryer, and the dryer was placed in a 25° C. box and left to stand for 24 h. After 24 h of sitting, the lid was put on the weighing bottle and the bottle was taken out and precisely weighed, the weight denoted by m3.
The hygroscopic weight gain was calculated using the formula: percent weight gain=100%×(m3−m2)/(m2−m1).

[4] = tested on: COLO205 cells; test: CellTiter-Glo cell viability assay, proliferation of COLO205 cells; format: cell-based, Human; details: for IC50: Homo sapiens, COLO 205, 72 h, COLO205, 3 days incubation
Excerpt: In the assay, the inhibitory effect of crystal form A of the compound of formula (II) on the proliferation of colorectal cell COLO205 that highly expresses Cdc7 was investigated.
CellTiter-Glo® Luminescent Cell Viability Assay is a homogeneous rapid assay for the viability of living cells in cultures by ATP quantification. ATP is an indicator of the metabolism of living cells. Cell lysis and the luminescence signals generated are directly proportional to the amount of ATP that exists, and the amount of ATP is directly proportional to the number of living cells in cultures.
Cells having achieved 80%-90% cell fusion were digested with pancreatin. After the digestion was stopped with 1 mL of culture medium, the cells were transferred to a new culture dish according to a proper proportion, and 10 mL of fresh cell culture medium was added to the culture dish. Then the cell culture dish was placed in a 37° C., 5% CO2 incubator to continue the culture.
The compound was diluted to 2 mM with 100% DMSO—that is, 5 μL of 10 mM compound stock solution was transferred to column 1 of a 96-well compound plate, 20 μL of 100% DMSO was then added, and the mixture was well mixed. To column 2 through column 9 of the 96-well compound plate was added 20 μL of 100% DMSO. From column 1, 10 μL of compound was transferred to column 2, and the mixture was well mixed. Then 10 μL of compound was transferred from column 2 to column 3, and the mixture was well mixed. This procedure was repeated to column 9 to complete the serial dilution of the compound. Preparation of compound working solutions: From the compound plate, 2 μL/well of compound was transferred to a new 96-well compound plate, and 78 μL/well of cell culture medium was added. To a negative control well was added 2 μL of 100% DMSO followed by 78 μL of cell culture medium. The compound concentration was the final concentration. The blank control well was a culture medium well containing no cells. The negative control was […].
COLO205 cells having achieved 80%-90% cell fusion were digested with pancreatin and counted. After counting, the cell suspension was diluted with cell culture medium to a desired density. To each well of a 96-well cell culture plate was inoculated 80 μL of cell suspension. […]
After the incubation, 100 μL of CTG assay reagent was added to each well of the cell plate, and the plate was incubated at 25° C. for 10 min. After the incubation, luminescence signals were measured on Envision.
The signal value of the background blank control well was subtracted from the measured signal value of each group for standardization. […]
The percent inhibition was calculated from the original readings according to the calculation formula. A graph was then plotted using Prism and the IC50 of the compound was calculated.

Chain of CDC7/DBF4 kinase (O00311 whole entry): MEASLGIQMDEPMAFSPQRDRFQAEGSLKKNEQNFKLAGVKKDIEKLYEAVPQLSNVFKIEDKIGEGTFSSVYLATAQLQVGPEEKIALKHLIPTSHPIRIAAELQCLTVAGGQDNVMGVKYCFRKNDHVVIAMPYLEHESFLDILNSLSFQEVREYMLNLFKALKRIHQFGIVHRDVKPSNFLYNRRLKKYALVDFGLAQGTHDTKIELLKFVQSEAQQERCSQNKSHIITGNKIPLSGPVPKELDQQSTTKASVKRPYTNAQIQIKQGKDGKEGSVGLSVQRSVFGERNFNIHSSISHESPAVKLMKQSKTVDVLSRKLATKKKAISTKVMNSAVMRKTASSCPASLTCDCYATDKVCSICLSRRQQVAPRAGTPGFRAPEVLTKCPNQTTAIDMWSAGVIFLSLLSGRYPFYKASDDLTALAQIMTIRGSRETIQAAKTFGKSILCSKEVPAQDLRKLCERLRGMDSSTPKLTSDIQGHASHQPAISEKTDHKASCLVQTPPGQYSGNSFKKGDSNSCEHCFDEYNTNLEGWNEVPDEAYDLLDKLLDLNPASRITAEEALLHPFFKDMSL
Chain of CDC7/DBF4 kinase (Q9UBU7 whole entry partner): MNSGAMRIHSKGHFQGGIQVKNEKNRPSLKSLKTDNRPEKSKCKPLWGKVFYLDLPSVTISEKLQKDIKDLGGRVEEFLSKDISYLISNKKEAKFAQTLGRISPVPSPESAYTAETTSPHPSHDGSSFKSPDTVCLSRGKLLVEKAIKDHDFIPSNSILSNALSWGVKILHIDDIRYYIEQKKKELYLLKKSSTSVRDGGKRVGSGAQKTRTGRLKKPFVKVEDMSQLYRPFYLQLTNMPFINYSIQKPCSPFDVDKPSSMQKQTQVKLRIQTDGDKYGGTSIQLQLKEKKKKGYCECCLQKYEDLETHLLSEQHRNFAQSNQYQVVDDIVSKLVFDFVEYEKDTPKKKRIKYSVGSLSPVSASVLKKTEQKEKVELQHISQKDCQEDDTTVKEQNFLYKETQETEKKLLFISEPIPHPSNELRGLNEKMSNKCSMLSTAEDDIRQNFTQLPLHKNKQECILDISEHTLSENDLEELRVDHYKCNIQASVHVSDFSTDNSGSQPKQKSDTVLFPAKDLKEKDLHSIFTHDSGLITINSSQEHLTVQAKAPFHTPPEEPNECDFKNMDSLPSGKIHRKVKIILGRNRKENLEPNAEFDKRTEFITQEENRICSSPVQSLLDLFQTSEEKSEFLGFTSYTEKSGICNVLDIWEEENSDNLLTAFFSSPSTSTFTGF

In the case of O=C(O)/C=C\C(=O)O.O=c1[nH]c([C@@H]2CC3CCN2CC3)nc2c3c(sc12)-c1cn[nH]c1CCC3, the IC50 ([1]; first assay, read-out: IC50 (nM) First assay) is reported as 3.49 nM, the IC50 ([1]; mean of two assays, read-out: IC50 (nM) Mean) is reported as 2.92 nM and the IC50 ([1]; second assay, read-out: IC50 (nM) Second assay) is reported as 2.35 nM. The “inhibitory effect on enzyme CDC7/DBF4” value ([1]; conclusion in words) was “relatively strong inhibitory effect”, the Appearance ([2]; 0 days) was “White” and the ee % ([2]; 0 days) was 99.028%. The “impurity at RRT 0.31” value ([2]; 0 days) was 0.02, the Appearance ([2]; 25/92.5% RH-5 days) was “White” and the “TRS(%) total impurity content” value ([2]; 25/92.5% RH-5 days) was 0.03%. For the same compound, the ee % ([2]; 25/92.5% RH-5 days) was 98.77%, the “impurity at RRT 0.31” value ([2]; 25/92.5% RH-5 days) was 0.03 and the Appearance ([2]; 25/92.5% RH-10 days) was “White”. For the same compound, the “TRS(%) total impurity content” value ([2]; 25/92.5% RH-10 days) was 0.06%, the ee % ([2]; 25/92.5% RH-10 days) was 98.958% and the “impurity at RRT 0.31” value ([2]; 25/92.5% RH-10 days) was 0.03. For the same compound, the “impurity at RRT 1.40” value ([2]; 25/92.5% RH-10 days) was 0.03, the Appearance ([2]; 40° C./75% RH-1 month) was “White” and the “TRS(%) total impurity content” value ([2]; 40° C./75% RH-1 month) was 0.02%. The ee % ([2]; 40° C./75% RH-1 month) was 99.380%, the “impurity at RRT 0.31” value ([2]; 40° C./75% RH-1 month) was 0.02 and the Appearance ([2]; 40° C./75% RH-2 months) was “White”. The “TRS(%) total impurity content” value ([2]; 40° C./75% RH-2 months) was 0.02%, the ee % ([2]; 40° C./75% RH-2 months) was 100% and the “impurity at RRT 0.91” value ([2]; 40° C./75% RH-2 months) was 0.02. For the same compound, the Appearance ([2]; 40° C./75% RH-3 months) was “White”, the “TRS(%) total impurity content” value ([2]; 40° C./75% RH-3 months) was 0% and the ee % ([2]; 40° C./75% RH-3 months) was 100%. For the same compound, the Appearance ([2]; 40° C./75% RH-10 days) was “White”, the “TRS(%) total impurity content” value ([2]; 40° C./75% RH-10 days) was 0.04% and the ee % ([2]; 40° C./75% RH-10 days) was 99.164%. The “impurity at RRT 0.23” value ([2]; 40° C./75% RH-10 days) was 0.02, the “impurity at RRT 0.31” value ([2]; 40° C./75% RH-10 days) was 0.02 and the Appearance ([2]; 60° C.-5 days) was “White”. The “TRS(%) total impurity content” value ([2]; 60° C.-5 days) was 0.06%, the ee % ([2]; 60° C.-5 days) was 98.632% and the “impurity at RRT 0.23” value ([2]; 60° C.-5 days) was 0.03. The “impurity at RRT 0.31” value ([2]; 60° C.-5 days) was 0.03, the Appearance ([2]; 60° C.-10 days) was “White” and the “TRS(%) total impurity content” value ([2]; 60° C.-10 days) was 0.10%. For the same compound, the ee % ([2]; 60° C.-10 days) was 98.900%, the “impurity at RRT 0.23” value ([2]; 60° C.-10 days) was 0.02 and the “impurity at RRT 0.31” value ([2]; 60° C.-10 days) was 0.03. The “impurity at RRT 1.08” value ([2]; 60° C.-10 days) was 0.05, the Appearance ([2]; 60° C./75% RH-1 month) was “White” and the “TRS(%) total impurity content” value ([2]; 60° C./75% RH-1 month) was 0.08%. For the same compound, the ee % ([2]; 60° C./75% RH-1 month) was 100%, the “impurity at RRT 0.23” value ([2]; 60° C./75% RH-1 month) was 0.02 and the “impurity at RRT 0.98” value ([2]; 60° C./75% RH-1 month) was 0.03. The “impurity at RRT 0.99” value ([2]; 60° C./75% RH-1 month) was 0.03, the Appearance ([2]; 60° C./75% RH-10 days) was “White” and the “TRS(%) total impurity content” value ([2]; 60° C./75% RH-10 days) was 0.03%. The ee % ([2]; 60° C./75% RH-10 days) was 98.872%, the “impurity at RRT 0.23” value ([2]; 60° C./75% RH-10 days) was 0.03 and the “stability (impurity content) under high temperature and high humidity conditions” value ([2]; conclusion in words) was “the stability is good”. For the same compound, the category of hygroscopicity [3] was “non-hygroscopic or hardly hygroscopic”, the IC50 ([4]; first assay, read-out: COLO205(nM) IC50 First assay) was 14.3 nM and the IC50 ([4]; mean of two assays, read-out: COLO205(nM) IC50 Mean) was 14.5 nM. The IC50 ([4]; second assay, read-out: COLO205(nM) IC50 Second assay) was 14.7 nM and the “inhibitory effect on COLO205 cells” value ([4]; conclusion in words) was “relatively strong inhibitory effect”.
